These results are taken from US8580747B2, “Cyclic natriuretic peptide constructs” (Palatin Technologies, Inc., priority 2006, dated 2013).

Like-named read-outs stand apart in the source and are kept apart here. Bridge positions count the residues as written; N and C are the ends. Square brackets hold non-standard residues; d marks the D form. Peptide text beside a SMILES is read from it. * marks the point of attachment. Piperazin2one(3S-Bu,6R-CO) = CCCC[C@@H]1NC[C@H](C(=O)*)NC1=O; X1 = N=C(N)NCCC[C@H]1C(=O)N[C@@H](C(N)=O)CN1*; Heptanoyl = CCCCCCC(=O)*; Nle = CCCC[C@H](N)C(=O)O; Orn = NCCC[C@H](N)C(=O)O

The conditions of data set [1]: rat, in vivo, sc.
For data set [2], the target named is T1, NEP (neutral endopeptidase) (Homo sapiens, UniProt P08473).
T1 construct: purchased R&D Systems, Minneapolis, Minn; 1182-ZN
Briefly: hNEP resistance assay (digestion by neutral endopeptidase). It counts as in vitro ADME. As to conditions: pH 7.4. The procedure:
NEP resistance of various constructs of the invention was evaluated using the following experimental procedure. All constructs were diluted in 0.1 M Tris-HCL buffer (pH 7.4) to 100 μM. 40 μL of diluted constructs were added to each tube and all tubes were kept on ice. 40 μL of diluted NEP, either human recombinant NEP (R&D Systems, Minneapolis, Minn., catalogue #1182-ZN) at 8 ng/μL or mouse NEP (R&D Systems, catalog #1126-ZN) at 2.5 ng/μL, was added to each tube. The tubes were mixed gently and spun. […] At the end of the incubation time, the reaction was stopped by adding 5 μL of 10% TFA. […] The extent to which NEP was active against the constructs was then analyzed by HPLC and/or LC/MS. Data analysis included determining the percent of remaining starting material, i.e., undigested peptide construct, and the percent and sequence of each proteolytic fragment.

The conditions of data set [3]: rat, in vivo, iv.
[4] abbreviates: human, isolated enzyme neprilysin.

T1 sequence (P08473 52-750 limits assumed): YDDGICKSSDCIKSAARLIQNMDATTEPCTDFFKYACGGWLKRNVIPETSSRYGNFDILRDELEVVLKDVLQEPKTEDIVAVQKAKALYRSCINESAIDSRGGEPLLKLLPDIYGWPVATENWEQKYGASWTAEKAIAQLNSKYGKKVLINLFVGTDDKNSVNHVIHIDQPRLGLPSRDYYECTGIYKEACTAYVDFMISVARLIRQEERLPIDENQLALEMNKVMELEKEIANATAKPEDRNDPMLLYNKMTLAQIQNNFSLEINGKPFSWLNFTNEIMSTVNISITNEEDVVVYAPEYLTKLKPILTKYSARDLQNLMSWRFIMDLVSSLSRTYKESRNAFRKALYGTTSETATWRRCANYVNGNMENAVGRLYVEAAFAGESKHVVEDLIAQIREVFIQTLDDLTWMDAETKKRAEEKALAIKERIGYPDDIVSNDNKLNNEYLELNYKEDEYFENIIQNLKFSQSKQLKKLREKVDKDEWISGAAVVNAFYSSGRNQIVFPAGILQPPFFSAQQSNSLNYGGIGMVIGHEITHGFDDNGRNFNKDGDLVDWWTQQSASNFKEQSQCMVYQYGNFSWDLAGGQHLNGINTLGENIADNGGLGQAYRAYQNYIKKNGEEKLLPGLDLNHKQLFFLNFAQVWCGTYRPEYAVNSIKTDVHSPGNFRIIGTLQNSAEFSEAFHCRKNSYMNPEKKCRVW

As usually defined, the AUC is the area under the concentration-time curve, a measure of exposure. Higher therefore signals more exposure. The term Cmax denotes the highest concentration seen after dosing. Usually Tmax stands for the time from dosing to the highest level. Usually half-life stands for the time needed for the level to fall by half in the phase considered. Read a high half-life as slow loss. Usually clearance stands for the rate of elimination divided by the concentration. High values mean a high capacity for elimination, low ones a low capacity for elimination. As a reminder, the Vd is a proportionality between amount in the body and measured concentration, not a real space. Read a low Vd as little distribution into tissue. In the case of `CCCC[C@@H]1NC[C@H](C(=O)N[C@H]2CSSC[C@@H](C(=O)N[C@@H](Cc3ccc(O)cc3)C(=O)N3C[C@H](C(N)=O)NC(=O)[C@@H]3CCCNC(=N)N)NC(=O)[C@H](CO)NC(=O)[C@H]([C@@H](C)CC)NC(=O)[C@H](CCCN)NC(=O)[C@H](CC(=O)O)NC(=O)[C@H](CCCC)NC(=O)[C@H](CCCNC(=N)N)NC(=O)CNC(=O)CNC(=O)[C@H](Cc3ccccc3)NC(=O)[C@H](Cc3c[nH]cn3)NC2=O)NC1=O` [1-55] ({Piperazin2one(3S-Bu,6R-CO)}-CHFGGR[Nle]D[Orn]ISCY-X1; disulfide 1-12), in data set [1] (5 mg/kg), the AUC stood at 0.232 µM·h, the Cmax was determined as 250 nM, the Tmax was found to be 18 min and the half-life is 30 min. In addition, the remaining at 1 h, 50 µM in data set [2] (human recombinant NEP (neutral endopeptidase), incubation with human recombinant NEP at 37° C., 1 h, read-out: hNEP % of Starting Material 1 h) was determined as 83%. For the same compound, the remaining at 2 h, 50 µM in data set [2] (human recombinant NEP (neutral endopeptidase), incubation with human recombinant NEP at 37° C., 2 h, read-out: hNEP % of Starting Material 2 h) came to 70%. The compound further registered a clearance in data set [3] of 21 mL/min/kg. Besides, in data set [3] (0.3 mg/kg), the AUC amounted to 0.116 µM·h, the Vd was 0.2 L/kg, the clearance worked out at 15 mL/min/kg and the half-life was 12 min. Also, in data set [3] (2 mg/kg), the AUC was found to be 0.828 µM·h, the Vd is 0.3 L/kg, the clearance worked out at 21 mL/min/kg and the half-life is 18 min.
`CCCCCCC(=O)N[C@H]1CSSC[C@@H](C(=O)N[C@@H](Cc2ccc(O)cc2)C(=O)N2C[C@H](C(N)=O)NC(=O)[C@@H]2CCCNC(=N)N)NC(=O)[C@H](CO)NC(=O)[C@H]([C@@H](C)CC)NC(=O)[C@H](CCCNC(=N)N)NC(=O)[C@H](CC(=O)O)NC(=O)[C@H](CCCC)NC(=O)[C@H](CCCNC(=N)N)NC(=O)CNC(=O)CNC(=O)[C@H](Cc2ccccc2)NC(=O)[C@H](Cc2c[nH]cn2)NC1=O` [1-63] (Heptanoyl-CHFGGR[Nle]DRISCY-X1; disulfide 1-12): in data set [1] (1 mg/kg), the AUC was determined as 0.007 µM·h, the peak level (Cmax) was 26 nM, the Tmax was determined as 6 min and the half-life was 12 min. Further, in data set [2] (setting [4]), the remaining at 1 h, 50 µM turned out to be 67% and the remaining at 2 h, 50 µM came to 44%. Moreover, in data set [3], the clearance stood at 203 mL/min/kg. In data set [3] (0.3 mg/kg), this compound gave an AUC of 0.033 µM·h, a Vd of 5.8 L/kg, a clearance of 546 mL/min/kg and a half-life of 18 min. Besides, in data set [3] (2 mg/kg), the AUC was 0.067 µM·h, the Vd turned out to be 4.6 L/kg, the clearance was found to be 290 mL/min/kg and the half-life is 18 min.
